These results are taken from ChEMBL document CHEMBL5370533 (Eur J Med Chem, 2023).

Some results are limits rather than exact numbers.

Usually GI50 stands for the concentration giving 50% growth inhibition. Usually Kd stands for a measure of binding affinity in units of concentration. A lower Kd goes with higher affinity. As usually defined, the inhibition is the share of the control response that was lost under treatment. What is called bioavailability is dose-corrected exposure relative to a reference, in per cent. Low values mean little systemic uptake, high ones much systemic uptake. Usually Tmax stands for the time from dosing to the highest level. In general, IC50 refers to the midpoint of a concentration-inhibition curve. Broadly, the half-life is how long it takes for the measured level to halve. A low value points to rapid decline.

For one series, the system named is NCI-H460. In words: Antiproliferative activity against human NCI-H460 cells assessed as inhibition of cell growth. In kind it is functional.
Series [1] addresses Receptor-type tyrosine-protein kinase FLT3 (Homo sapiens, UniProt P36888, K663Q). In words: Binding affinity to FLT3 K663Q mutant (unknown origin).
Series [2] has as its target CDK7/Cyclin H/MNAT1 (Homo sapiens) (UniProt P51946+P50613+P51948). In words: Inhibition of CDK7/Cyclin H/MAT1 (unknown origin). The class given is protein-complex assay. The settings on record: concentration not given here.
In series [3] the target is T1, Receptor-type tyrosine-protein kinase FLT3 (Homo sapiens, UniProt P36888).
T1 sequence (P36888 whole entry): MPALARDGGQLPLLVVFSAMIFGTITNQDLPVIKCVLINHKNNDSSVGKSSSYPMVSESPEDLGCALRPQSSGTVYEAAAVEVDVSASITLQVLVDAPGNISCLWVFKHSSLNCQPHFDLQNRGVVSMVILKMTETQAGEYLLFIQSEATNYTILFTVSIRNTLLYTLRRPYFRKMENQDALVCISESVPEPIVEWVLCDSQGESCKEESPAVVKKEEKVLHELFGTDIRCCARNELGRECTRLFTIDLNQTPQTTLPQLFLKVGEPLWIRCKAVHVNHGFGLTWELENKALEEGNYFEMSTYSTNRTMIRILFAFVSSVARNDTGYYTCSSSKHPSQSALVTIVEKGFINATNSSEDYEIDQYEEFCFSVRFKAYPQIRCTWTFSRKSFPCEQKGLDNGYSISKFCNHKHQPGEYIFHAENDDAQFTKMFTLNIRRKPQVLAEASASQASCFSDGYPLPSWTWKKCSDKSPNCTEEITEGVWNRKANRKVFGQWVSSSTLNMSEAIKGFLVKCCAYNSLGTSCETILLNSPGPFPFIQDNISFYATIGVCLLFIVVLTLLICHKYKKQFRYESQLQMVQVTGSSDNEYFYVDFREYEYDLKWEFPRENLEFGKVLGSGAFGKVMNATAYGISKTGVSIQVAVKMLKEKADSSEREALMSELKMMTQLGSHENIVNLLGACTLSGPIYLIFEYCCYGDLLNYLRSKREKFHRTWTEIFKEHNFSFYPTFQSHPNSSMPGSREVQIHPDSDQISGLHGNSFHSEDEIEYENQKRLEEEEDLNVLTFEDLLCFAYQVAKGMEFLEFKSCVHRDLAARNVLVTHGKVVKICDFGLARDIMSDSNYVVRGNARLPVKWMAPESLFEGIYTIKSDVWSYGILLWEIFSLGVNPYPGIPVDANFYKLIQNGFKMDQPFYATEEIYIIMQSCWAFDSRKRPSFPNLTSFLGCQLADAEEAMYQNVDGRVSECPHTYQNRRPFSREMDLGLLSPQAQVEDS
In words: Binding affinity to autoinhibited FLT3 (unknown origin).

The test system of a further series is SW-620. In words: Antiproliferative activity against human SW-620 cells assessed as inhibition of cell growth. The class given is functional.
The nature of series [4]: Oral bioavailability in rat at 10 mg/kg. In kind it is ADME, organism-based. The settings on record: in vivo.
Series [5] addresses Receptor-type tyrosine-protein kinase FLT3 (Homo sapiens) (UniProt P36888). In words: Inhibition of FLT3 in human MV4-11 cells assessed as decrease in phosphorylated STAT5 level incubated for 24 hrs by immunoblot analysis. The class given is cell-based. The conditions noted are these: dose 20-600 nM. On the technique in general: Immunoblotting shows a protein as a band on a membrane.

Series [6] can be described thus: Toxicity against nu/nu mouse xenografted with human MV4-11 cells assessed as decrease in body weight at 25 mg/kg, po qd for 2 weeks. The class given is organism-based. The settings on record: in vivo, 336 h.
Series [7] can be described thus: Tmax in rat at 10 mg/kg, po. The class given is ADME, organism-based. The settings on record: in vivo.
The subject of series [8] is SR. In words: Antiproliferative activity against human SR cells assessed as inhibition of cell growth. The class given is functional.
For series [9], the target named is Receptor-type tyrosine-protein kinase FLT3 (Homo sapiens, UniProt P36888, D835H). In words: Binding affinity to FLT3 D835H mutant (unknown origin).
The target of series [10] is T1, Receptor-type tyrosine-protein kinase FLT3. In words: Inhibition of human FLT3 using EAIYAAPFAKKK and [gamma-33P]-ATP as substrate pretreated for 20 mins followed by [gamma-33P]-ATP addition and measured after 120 mins in presence of 10 uM ATP by radiometric Hot-SpotSM Kinase assay.
Series [11] has as its target Receptor-type tyrosine-protein kinase FLT3 (Homo sapiens, UniProt P36888, ITD). In words: Binding affinity to FLT3 ITD mutant (unknown origin).
For the next series, the system named is KM12. In words: Antiproliferative activity against human KM12 cells assessed as inhibition of cell growth. In kind it is functional.
In the next series the test system is THP-1. In words: Antiproliferative activity against human THP-1 cells expressing wild type FLT3 assessed as inhibition of cell growth. The class given is functional, cell-based.
The subject of series [12] is SR. In words: Antiproliferative activity against human SR cells not addicted to FLT3 ITD mutant assessed as inhibition of cell growth. In kind it is functional.
Series [13] can be described thus: Half life in human liver microsomes by LC-MS/MS analysis. The class given is ADME, Microsome.
The next series relates to BaF3. In words: cells. The class given is functional, cell-based. The conditions noted are these: Mus musculus, BaF3, 72 h.
The target of series [14] is CDK6/cyclin D1 (Homo sapiens) (UniProt P24385+Q00534). In words: Inhibition of CDK6/Cyclin D1 (unknown origin). In kind it is protein-complex assay. The conditions noted are these: concentration not given here.
For series [15], the target named is Receptor-type tyrosine-protein kinase FLT3 (Homo sapiens, UniProt P36888, D835Y). In words: Binding affinity to FLT3 D835Y mutant (unknown origin).
The target of series [16] is Cyclin-dependent kinase 2 (Homo sapiens, UniProt P24941). In words: Inhibition of human CDK2 pretreated for 20 mins followed by [gamma-33P]-ATP addition and measured after 120 mins in presence of 10 uM ATP by radiometric Hot-SpotSM Kinase assay.
In series [17] the target is Receptor-type tyrosine-protein kinase FLT3 (Homo sapiens, UniProt P36888, R834Q). In words: Binding affinity to FLT3 R834Q mutant (unknown origin).

Description for BaF3: Antiproliferative activity against mouse BaF3 cells harboring FLT3 ITD mutant assessed as inhibition of cell growth incubated for 72 hrs

Turning to `O=C(Nc1ccc(N2CCNCC2)cc1)c1n[nH]cc1Nc1cc(Oc2ccccc2)ncn1`, the GI50 in the series with NCI-H460 is < 1000 nM; with SW-620, < 1000 nM; in the series with SR [8], < 1000 nM; in the series on KM12, < 1000 nM; in the series on SR [12], 300 nM. Besides, the Kd worked out at 121 nM in series [1]; 121 nM in series [3]; 48.5 nM in series [9]; 18.2 nM in series [11]; 7.16 nM in [15]; 66.5 nM in series [17]. Besides, the inhibition in series [2] was 80.9%; in [5], “Dose-Dependent Effect”; in [14] it was 68.8%. Moreover, the bioavailability in [4] is 33.3%. Moreover, the Activity entry in series [6] is “Non-Toxic”. In addition, in series [7], the Tmax is 4 h. Besides, the IC50 in series [10] came out at 0.62 nM; in the series with THP-1 it was 904 nM; in the series on BaF3 it was 39 nM; in series [16], 98.3 nM. Also, the half-life in series [13] is 3.1 h.
